Target: T1, CHRM4 (Homo sapiens, UniProt P08173)
T1 construct: purchased Promega (in-house HiBiT-GPCR construct library, NanoBRET)
T1 sequence (P08173 1-479): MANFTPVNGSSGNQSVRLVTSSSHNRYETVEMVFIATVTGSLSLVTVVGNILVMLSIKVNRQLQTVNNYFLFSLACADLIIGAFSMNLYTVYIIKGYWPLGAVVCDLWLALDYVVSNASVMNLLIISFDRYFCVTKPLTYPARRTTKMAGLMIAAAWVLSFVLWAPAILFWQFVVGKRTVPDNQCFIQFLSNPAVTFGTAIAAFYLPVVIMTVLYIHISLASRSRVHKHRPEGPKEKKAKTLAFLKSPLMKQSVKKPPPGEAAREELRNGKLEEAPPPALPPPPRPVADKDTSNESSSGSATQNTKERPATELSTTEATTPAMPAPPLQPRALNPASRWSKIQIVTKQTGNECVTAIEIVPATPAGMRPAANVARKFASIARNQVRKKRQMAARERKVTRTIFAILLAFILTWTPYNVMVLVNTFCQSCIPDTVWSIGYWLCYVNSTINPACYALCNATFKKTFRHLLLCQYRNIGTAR
Experiment: NanoBRET screen HiBiT-CHRM4 in HEK293
Assay type: binding
Method: Each tracer candidate was screened across the entire library of HiBiT-GPCR constructs using NanoBRET as the detection modality. As depicted in Figure 4A, the specificity of interactions was evaluated through decrease in BRET due to competitive displacement of a bound tracer by excess parental compound. Each tracer was analyzed for binding to each HiBiT-GPCR fusion in the absence and in the presence of competing parental compound. Briefly, HEK293 cells were transfected with HiBiT-GPCR constructs diluted into promoterless DNA to reduce expression and maximize translocation to the cell surface. Each tracer candidate was then screened at concentrations of 1 μM and 0.1 μM across cells expressing these fusions. Cells were treated for 1.5 h with tracer either alone or in the presence of 20 μM competing parental compound (i.e., control). BRET was measured upon addition of purified LgBiT and subsequent complementation with HiBiT genetically fused to a GPCR. The specificity of interactions was assessed through a decrease in BRET signal due to competitive displacement of the bound tracer. To further gauge the robustness of these interactions, the fold response over the control (i.e., BRETtracer/BRETcontrol) was calculated. We chose a 1.5-fold response, which translates to ≥7-fold signal over noise as the minimal threshold required to score an interaction as positive.
HiBiT-GPCR DNA constructs were diluted in 10 mM Tris pH 8 to a final concentration of 0.01 μg/μL, arrayed in 96-well plates and stored at −20 °C. For transfection, HEK293 cells were suspended in Opti-MEM (without phenol red) supplemented with 2% fetal bovine serum (Seradigm) and 100 units/mL penicillin–streptomycin (Gibco) at a final concentration of 220,000 cells/mL and dispensed into white 96-well plates at 90 μL/well. Subsequent transfections and screens were carried using an Agilent Bravo Automated Liquid Handling Platform. First, the 96-well HiBiT DNA arrays were diluted 25-fold in Opti-MEM (without serum or phenol red) to a final concentration of 0.0004 μg/μL and 20 μL of the diluted DNAs were transferred into new 96-well plates. Next, promoterless carrier DNA (1 μg/μL) was diluted 25-fold (0.04 μg/μL) and then dispensed into the diluted arrays at 20 μL/well. Following brief mixing, Viafect transfection reagent (Promega) diluted 16-fold into Opti-MEM was dispensed into the plates at 40 μL/well. After mixing by pipetting, plates were incubated for 10 min on the pipetting station deck. The DNA-transfection reagent complexes were then added to plates containing cells. To facilitate the screen, 10 μL of DNA-transfection reagent complexes were added in duplicates to the top 4 and bottom 4 rows, resulting in two identical 48-well arrays per plate. Plates with transfected cells were incubated for 18–20 h at 37 °C/5% CO2. A screen of each tracer across the entire library using two different concentrations requires duplicate plates of transfected cells. Depending on the number of tracers being screened, transfections can be scaled up using the same ratios. The next day, for each tracer, four 20× screening solutions in tracer dilution buffer (Promega) were prepared: two duplicates at final concentration of 20 μM and two duplicates at a final concentration of 2 μM. […] The four resulting solutions were diluted 4-fold in Opti-MEM without serum or phenol red to generate 5× solutions (5 µM and 0.5 µM tracer +/− 100 μM competing compound). To screen the library, a BioTek MultiFlo FX liquid dispenser was used to dispense 22.5 µL of tracer solution to the top 4 rows and 22.5 µL tracer + competing compound solution to the 4 bottom rows. Plates were briefly mixed on an orbital shaker and incubated for 1.5 h at room temperature. […] Plates were briefly mixed on an orbital shaker and incubated for 15 min to allow complementation.

SMILES	NanoBRET Fold Response (CHRM4, tracer 0.1μM)	NanoBRET Fold Response (CHRM4, tracer 1μM)	also measured
CCOC(=O)c1cc(C#N)c(N2CCC(C(=O)NS(=O)(=O)Cc3ccccc3/C=C/C(=O)NCCNC(=O)CCc3ccc4n3[B-](F)(F)[N+]3=C(c5ccc[nH]5)C=CC3=C4)CC2)nc1C [AZD1283-1-NB590]	–	–	NanoBRET Fold Response (CHRM4, 0.1μM): 0.97; NanoBRET Fold Response (CHRM4, 1μM): 1.06
N#CN=C(NCCCOc1cccc(CN2CCCCC2)c1)NCCNC(=O)CCOCCOCCOCCOCCNC(=O)CCc1ccc2n1[B-](F)(F)[N+]1=C(c3ccc[nH]3)C=CC1=C2 [Aminopotentidine-2-NB590]	1.17	1.39	–
CN(C)CCC=C1c2ccccc2CCc2ccc(C(=O)NCCNC(=O)CCOCCOCCOCCOCCNC(=O)CCc3ccc4n3[B-](F)(F)[N+]3=C(c5ccc[nH]5)C=CC3=C4)cc21 [Amitriptyline-a-2-NB590]	–	–	NanoBRET Fold Response (tracer at 1μM): 1.45
CN(C)CCC=C1c2ccccc2CCc2ccc(C(=O)NCCNC(=O)CCOCCOCCOCCOCCNC(=O)CCc3ccc4n3[B-](F)(F)[N+]3=C(c5ccc[nH]5)C=CC3=C4)cc21 [Amitriptyline-b-2-NB590]	–	–	NanoBRET Fold Response (tracer at 0.1μM, listed as amitriptyline-b-2-NB590): 3.79; NanoBRET Fold Response (tracer at 1μM, listed as amitriptyline-b-2-NB590): 1.75
CN(CCC=C1c2ccccc2CCc2ccccc21)C(=O)CCOCCOCCOCCOCCNC(=O)CCc1ccc2n1[B-](F)(F)[N+]1=C(c3ccc[nH]3)C=CC1=C2 [Amitriptyline-e-2-NB590]	–	–	NanoBRET Fold Response (tracer at 1μM): 1.25
COc1ccc2c(n1)c(CCNC(C)=O)cn2CCNC(=O)CCc1ccc2n1[B-](F)(F)[N+]1=C(c3ccc[nH]3)C=CC1=C2 [Azamelatonin-1-NB590]	–	–	NanoBRET Fold Response (0.1μM tracer): 0.74; NanoBRET Fold Response (1μM tracer): 0.98
COc1ccc2[nH]c(-c3ccc(CNC(=O)CCOCCOCCOCCOCCNC(=O)CCc4ccc5n4[B-](F)(F)[N+]4=C(c6ccc[nH]6)C=CC4=C5)cc3)c(CCNC(C)=O)c2n1 [AzomelatoninICO9-2-NB590]	–	–	NanoBRET Fold Response (0.1μM tracer): 0.77; NanoBRET Fold Response (1μM tracer): 0.98
O=C(CCOCCOCCOCCOCCNC(=O)CCc1ccc2n1[B-](F)(F)[N+]1=C(c3ccc[nH]3)C=CC1=C2)NCCCN1CCN(C2=Nc3cc(Cl)ccc3Nc3ccccc32)CC1 [Clozapine-a-2-NB590]	–	–	NanoBRET Fold Response (CHRM4, 0.1μM tracer): 1.55; NanoBRET Fold Response (CHRM4, 1μM tracer): 1.90
CN1CCN(C2=Nc3cc(Cl)ccc3Nc3ccc(CNC(=O)CCOCCOCCOCCOCCNC(=O)CCc4ccc5n4[B-](F)(F)[N+]4=C(c6ccc[nH]6)C=CC4=C5)cc32)CC1 [Clozapine-b-2-NB590]	–	–	NanoBRET Fold Response (CHRM4, 0.1μM tracer): 1.48; NanoBRET Fold Response (CHRM4, 1μM tracer): 2.78
CN1CCN(C2=Nc3cc(Cl)ccc3N(CC(=O)NCCOCCOCCOCCOCCNC(=O)CCc3ccc4n3[B-](F)(F)[N+]3=C(c5ccc[nH]5)C=CC3=C4)c3ccccc32)CC1 [Clozapine-c-2-NB590]	–	–	NanoBRET Fold Response (CHRM4, 0.1μM tracer): 0.97; NanoBRET Fold Response (CHRM4, 1μM tracer): 0.98
O=C(CCOCCOCCOCCOCCNC(=O)CCc1ccc2n1[B-](F)(F)[N+]1=C(c3ccc[nH]3)C=CC1=C2)NCCCN1CCN(C2=Nc3ccccc3Oc3ccc(Cl)cc32)CC1 [Loxapine-a-2-NB590]	1.11	1.18	–
COc1ccccc1N1CCN(CCCCN2C(=O)c3ccc(CNC(=O)CCOCCOCCOCCOCCNC(=O)CCc4ccc5n4[B-](F)(F)[N+]4=C(c6ccc[nH]6)C=CC4=C5)cc3C2=O)CC1 [NAN-190-2-NB590]	1.18	1.17	–
COc1ccccc1N1CCN(CCCCN2C(=O)c3ccc(CNC(=O)CCOCCNC(=O)c4ccc(CNC(=O)CCc5ccc6n5[B-](F)(F)[N+]5=C(c7ccc[nH]7)C=CC5=C6)cc4)cc3C2=O)CC1 [NAN-190-3-NB590]	1.30	0.66	–
O=C(CCc1ccc2n1[B-](F)(F)[N+]1=C(c3ccc[nH]3)C=CC1=C2)NCc1ccc(C(=O)NCCOCCC(=O)N[C@@H]2CC[C@@]3(O)[C@H]4Cc5ccc(O)c6c5[C@@]3(CCN4CC3CC3)[C@H]2O6)cc1 [Naltrexone-3-NB590]	0.66	0.79	–
Cc1cc2c(s1)Nc1ccccc1N=C2N1CCN(CCCNC(=O)CCOCCOCCOCCOCCNC(=O)CCc2ccc3n2[B-](F)(F)[N+]2=C(c4ccc[nH]4)C=CC2=C3)CC1 [Olanzapine-a-2-NB590]	1.07	1.23	–
O=C(CCc1ccc2n1[B-](F)(F)[N+]1=C(c3ccc[nH]3)C=CC1=C2)NCc1ccc(C(=O)NCCOCCOCCNCC(O)COc2cccc3ccccc23)cc1 (stereo not shown) [Propranolol-3-NB590]	–	–	NanoBRET Fold Response (CHRM4, 0.1μM): 0.96; NanoBRET Fold Response (CHRM4, 1μM): 1.05
O=C(CCc1ccc2n1[B-](F)(F)[N+]1=C(c3ccc[nH]3)C=CC1=C2)NCCOCCOCCNC(=O)OCCOCCN1CCN(C2=Nc3ccccc3Sc3ccccc32)CC1 [Quetiapine-a-2-NB590]	1.65	2.06	–
Cc1nc2n(c(=O)c1CCN1CCC(c3noc4cc(F)ccc34)CC1)CCCC2OC(=O)NCCOCCOCCOCCOCCNC(=O)CCc1ccc2n1[B-](F)(F)[N+]1=C(c3ccc[nH]3)C=CC1=C2 (stereo not shown) [Risperidone-2-NB590]	1.10	1.67	–
CC(C)N(CC[C@H](c1ccccc1)c1cc(CCNC(=O)CCOCCOCCOCCOCCNC(=O)CCc2ccc3n2[B-](F)(F)[N+]2=C(c4ccc[nH]4)C=CC2=C3)ccc1O)C(C)C [Tolterodine-2-NB590]	2.75	1.53	–
CC(C)N(CC[C@H](c1ccccc1)c1cc(CCNC(=O)c2ccc(CNC(=O)CCc3ccc4n3[B-](F)(F)[N+]3=C(c5ccc[nH]5)C=CC3=C4)cc2)ccc1O)C(C)C [Tolterodine-BZ-NB590]	3.69	2.39	–
CCCn1c(=O)c2[nH]c(-c3ccc(OCC(=O)NCCNC(=O)CCOCCNC(=O)c4ccc(CNC(=O)CCc5ccc6n5[B-](F)(F)[N+]5=C(c7ccc[nH]7)C=CC5=C6)cc4)cc3)nc2n(CCC)c1=O [XAC-3-NB590]	0.78	1.10	–

— publication PMC8151276, “An Integrated Approach toward NanoBRET Tracers for Analysis of GPCR Ligand Engagement” (Molecules, 2021)
